Results on two compounds are retold here after patent US4206221A, “Cephalomannine and its use in treating leukemic tumors” (priority 1979, dated 1980).

Test [1] deals with KB cell culture. Kind of test: cells. The note with it: for IC50: Homo sapiens, KB, 72 h, read-out: ED 50 (dose that inhibits growth to 50% of control growth); for activity in KB cell culture (in words): assay of extract and of fractions during isolation. Format: cell-based. On the procedure: The chemotherapeutic activities of the fractions obtained in the isolation procedure may be determined by a KB Cell Culture Screen in accordance with the National Cancer Institute Protocol 1.600 [Geran et al., Cancer Chemother. Rep., Part 3, 3: 17 (1972)]. […] Such a dose is referred to as ED 50 and activity is indicated for ED 50 levels of ≤30 μg./ml.

Test [2] deals with lymphocytic leukemia cells of the strain P388. Kind of test: P388 lymphocytic leukemia implanted in mice, survival time (T/C), National Cancer Institute Protocol 1.200. Format: in vivo. The note with it: intraperitoneal, once a day for 9 days, female DBA/2 mice, 125% or above considered active. The source says: The effectiveness of alkaloid compounds against lymphocytic leukemia cells of the strain P388 implanted in mice is another method of determining activity. These assays are made according to the National Cancer Institute Protocol 1.200 described in Geran et al. referred to above. The usefulness of cephalomannine as compared to taxol was ascertained by assaying Fractions K263 and K264 from Example 1 by this procedure. Starting 24 hr. after the tumor implantation, previously determined dosages of each compound were injected intraperitoneally once a day for 9 days. Survival time of treated leukemic mice is compared to that of untreated leukemic mice (T/C×100). A T/C value of 100% indicated no activity. A T/C value greater than 100% means that the treated mice are surviving longer than the control mice. A compound giving a T/C value greater than 125% is indicative of activity as defined by the NCI Protocols, above.
^1 All mice were female, DBA/2.
^2 The injection vehicle was saline + Tween 80 + alcohol.
^3 One intraperitoneal injection per day for 9 days.
^4 T/C = mean survival time of test animals/mean survival time of […]

The subject of test [3] is leukemia. The test is described as follows: activity against leukemia in animals (general statement). The note with it: in vivo.
For test [4], the system named is leukemia. To be noted: background, literature; cited from earlier work.

Each structure is given as a SMILES string. ≈ marks a conversion by molar mass, not a printed value. Read-outs that look alike come from different tables or passages of the source.

Regarding `CC=C(C)C(=O)NC(c1ccccc1)C(O)C(=O)O[C@H]1C[C@@]2(O)[C@@H](OC(=O)c3ccccc3)[C@@H]3[C@]4(OC(C)=O)CO[C@@H]4C[C@H](O)[C@@]3(C)C(=O)[C@H](OC(C)=O)C(=C1C)C2(C)C` (single isomer, unassigned) [cephalomannine], in test [1], the IC50 is 3.8 ng/mL (≈ 4.57 nM). Also, in test [1], the “activity in KB cell culture (in words)” value is listed as “showed activity”. The “T/C (mean survival time of test animals/mean survival time of control animals)” value in test [2] (1.00 mg./kg./inj.) is reported as 152%; in test [2] (1.40 mg./kg./inj.), 159%; in test [2] (2.20 mg./kg./inj.), 162%; in test [2] (3.30 mg./kg./inj.), 180%. Moreover, in test [3], the “activity against leukemia in animals (in words)” value is “demonstrates activity against leukemia in animals”.
In the case of `CC(=O)O[C@H]1C(=O)[C@@]2(C)[C@H]([C@H](OC(=O)c3ccccc3)[C@]3(O)C[C@H](OC(=O)C(O)C(NC(=O)c4ccccc4)c4ccccc4)C(C)=C1C3(C)C)[C@]1(OC(C)=O)CO[C@@H]1C[C@@H]2O` (single isomer, unassigned) [taxol, reference compound], the IC50 in test [1] (3 days after drug addition, active if ED 50 ≤30 μg./ml.) turned out to be 1.2 ng/mL (≈ 1.41 nM). For the same compound, the “activity in KB cell culture (in words)” value in test [1] is listed as “showed activity”. Also, the “T/C (mean survival time of test animals/mean survival time of control animals)” value in test [2] (1.40 mg./kg./inj.) amounted to 148%; in test [2] (2.20 mg./kg./inj.) it was 152%. In test [4], the “antileukemic / antitumor / chemotherapeutic activity (in words)” value was “antileukemic and antitumor agent”.
